Each block holds one compound with its values, some of them ahead of it.
Experiments:
[1] = target: (H+—K+)-ATPase (Homo sapiens, UniProt P20648); conditions: Biochemical Pharmacology (1991), 42(10), 1875-8; cited from earlier work
[2] = Storage stability studies (Example 28): water content and HPLC impurities; assay type: physicochemical
Excerpt: A high performance liquid chromatography (HPLC) method for measuring the chemical purity of dexlansoprazole or a compound of formula (VII) of the present application, and for determination of their corresponding impurities, involves the use of a YMC-PAK ODS-A 100×4.6, 3 μm or equivalent column.
A high performance liquid chromatography (HPLC) method for measuring the impurity at RRT 1.98, and having a mass number of m/z 467, in the present application involves the use of a YMC-PRO C-18 100×4.6 mm, 3 microns or equivalent column.
Dexlansoprazole obtained from Example 23 was tested for its storage stability. The samples were stored in a tied clear polyethylene bag, placed in a black polyethylene bag filled with N2 along with a silica desiccant pouch, and the black bag was placed into a triple laminated bag along with silica gel pouch and then sealed and stored in HDPE drum packaging under the conditions noted in the following results tables. Chemical purity of the samples was measured by HPLC before and after storage.
The following impurities were monitored during stability testing:
2-mercaptobenzimidazole (designated “2-MB) having the following structure;
a “nitrosulphoxide” impurity (designated “NS”) having the following structure;
a “sulfide” impurity, having a chemical name 2-[[{4-(2,2,2-trifluoroethoxy)-3-methylpyridine-2-yl}methyl]thio]-1H-benzimidazole and the following structure;
a “sulfone” impurity, having a chemical name 2-[[{4-(2,2,2-trifluoroethoxy)-3-methylpyridine-2-yl}methyl]sulfonyl]-1H-benzimidazole and the following structure;
and an unidentified impurity at RRT (relative retention time) 1.98. Also given in the following tables are the concentration of the highest unidentified impurity as measured by HPLC, total impurities, and the water content. All results in the tables given below are expressed on a weight percent basis, and “ND” means not detected.

[3] = Bulk density (USP Test 616, method 2); assay type: physicochemical
Excerpt: In an embodiment, the present application provides dexlansoprazole having bulk densities less than about 1 g/ml. Bulk density has been determined using Test 616 “Bulk Density and Tapped Density,” in United States Pharmacopoeia 29, United States Pharmacopeial Convention, Inc., Rockville, Md., 2005, in method 2.

[4] = Particle size distribution; assay type: physicochemical
Excerpt: “10th volume percentile” as used herein, unless otherwise defined refers to the size of particles, below which 10% of the measured sample volume lies; “50th volume percentile” as used herein, unless otherwise defined refers to the size of particles, below which 50% of the measured samples volume lies, and “90th volume percentile” as used herein, unless otherwise defined refers to the size of particles, below which 90% of the measured samples volume lies.
Particle size distributions of dexlansoprazole particles may be measured with a Jayant Test Siever (e.g., using mesh number 60, mesh opening 250 μm). Particle size distributions of dexlansoprazole particles may also be measured using light scattering equipment such as a Malvern Master Sizer 2000 (helium neon laser source, dexlansoprazole suspended in light liquid paraffin, size range: 0.02 μm to 2000 μm). Other techniques are also useful.

[5] = Specific surface area by the BET method; assay type: physicochemical
Procedure: The specific surface area of dexlansoprazole of the present application has been measured by a BET (Brunauer, Emmett and Teller) specific surface method using a Micromeritics Gemini surface area analyzer, model 2365. Samples for analysis were degassed at 40° C. under reduced pressure and the determination of the adsorption of nitrogen gas at 77° K was measured for relative pressure in the range of 0.05-0.3.

[6] = At 25 ± 2° C. and 60 ± 5% Relative Humidity, 1 month
[7] = At 25 ± 2° C. and 60 ± 5% Relative Humidity, 2 months
[8] = At 25 ± 2° C. and 60 ± 5% Relative Humidity, 3 months
[9] = At 25 ± 2° C. and 60 ± 5% Relative Humidity, 15 days
[10] = At 25 ± 2° C. and 60 ± 5% Relative Humidity, 45 days
[11] = At 25 ± 2° C. and 60 ± 5% Relative Humidity, Initial
[12] = storage at 2-8° C. and at 25 ± 2° C./60 ± 5% RH, up to 3 months

(H+—K+)-ATPase, sequence (P20648 whole entry): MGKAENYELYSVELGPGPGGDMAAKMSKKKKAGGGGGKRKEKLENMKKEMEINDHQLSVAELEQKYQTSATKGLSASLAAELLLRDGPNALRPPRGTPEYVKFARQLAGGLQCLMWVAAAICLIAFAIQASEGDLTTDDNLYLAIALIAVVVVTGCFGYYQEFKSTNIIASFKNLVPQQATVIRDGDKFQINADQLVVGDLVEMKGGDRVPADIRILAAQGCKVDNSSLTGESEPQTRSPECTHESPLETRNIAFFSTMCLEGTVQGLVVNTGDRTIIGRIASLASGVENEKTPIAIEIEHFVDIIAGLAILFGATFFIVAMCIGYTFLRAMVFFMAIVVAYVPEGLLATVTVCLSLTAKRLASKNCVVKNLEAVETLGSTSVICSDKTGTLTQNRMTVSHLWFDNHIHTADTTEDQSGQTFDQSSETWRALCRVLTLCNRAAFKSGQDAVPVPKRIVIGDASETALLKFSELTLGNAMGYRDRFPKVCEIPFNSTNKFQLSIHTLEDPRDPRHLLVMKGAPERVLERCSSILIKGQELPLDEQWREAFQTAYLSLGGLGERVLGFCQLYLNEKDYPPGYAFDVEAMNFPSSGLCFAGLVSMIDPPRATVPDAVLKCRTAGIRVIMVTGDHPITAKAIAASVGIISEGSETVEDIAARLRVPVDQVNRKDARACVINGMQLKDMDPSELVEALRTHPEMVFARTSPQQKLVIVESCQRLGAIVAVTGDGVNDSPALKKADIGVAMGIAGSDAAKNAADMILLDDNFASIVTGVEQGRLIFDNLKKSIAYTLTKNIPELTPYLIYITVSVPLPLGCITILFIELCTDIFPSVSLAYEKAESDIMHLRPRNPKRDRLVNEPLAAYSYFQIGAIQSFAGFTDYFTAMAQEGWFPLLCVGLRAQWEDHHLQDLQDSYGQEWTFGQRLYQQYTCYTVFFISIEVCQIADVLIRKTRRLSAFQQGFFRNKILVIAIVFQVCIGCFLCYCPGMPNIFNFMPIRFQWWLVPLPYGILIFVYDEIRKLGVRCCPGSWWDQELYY
(H+—K+)-ATPase, sequence (P51164 whole entry partner): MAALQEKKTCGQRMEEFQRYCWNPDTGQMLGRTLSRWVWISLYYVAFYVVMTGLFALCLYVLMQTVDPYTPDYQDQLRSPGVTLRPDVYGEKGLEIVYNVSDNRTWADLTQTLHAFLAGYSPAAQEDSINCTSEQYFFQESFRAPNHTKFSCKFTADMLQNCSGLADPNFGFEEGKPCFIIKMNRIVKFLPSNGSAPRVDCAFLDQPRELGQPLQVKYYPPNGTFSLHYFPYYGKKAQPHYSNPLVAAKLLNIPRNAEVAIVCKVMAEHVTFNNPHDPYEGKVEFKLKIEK

SMILES: Cc1c(OCC(F)(F)F)ccnc1C[S@@+]([O-])c1nc2ccccc2[nH]1 [Dexlansoprazole, (R)-2-[[[3-methyl-4-(2,2,2-trifluoroethoxy)-2-pyridinyl]methyl]sulfinyl]-1H-benzimidazole]
antisecretory activity due to the inhibition of (H+—K+)-ATPase [1]: antisecretory activity

2-MB ([2]; At 2-8° C., 1 month): 0.04 weight percent | Highest Impurity ([2]; At 2-8° C., 1 month): 0.07 weight percent | RRT 1.98 ([2]; At 2-8° C., 1 month): 0.06 weight percent | Sulfide ([2]; At 2-8° C., 1 month): 0.45 weight percent | Sulfone ([2]; At 2-8° C., 1 month): 0.57 weight percent | Total impurities ([2]; At 2-8° C., 1 month): 1.54 weight percent | Water ([2]; At 2-8° C., 1 month): 3.54 weight percent | 2-MB ([2]; At 2-8° C., 2 months): 0.03 weight percent | Highest Impurity ([2]; At 2-8° C., 2 months): 0.07 weight percent | RRT 1.98 ([2]; At 2-8° C., 2 months): 0.06 weight percent | Sulfide ([2]; At 2-8° C., 2 months): 0.50 weight percent | Sulfone ([2]; At 2-8° C., 2 months): 0.61 weight percent | Total impurities ([2]; At 2-8° C., 2 months): 1.76 weight percent | Water ([2]; At 2-8° C., 2 months): 2.61 weight percent | 2-MB ([2]; At 2-8° C., 3 months): 0.02 weight percent | Highest Impurity ([2]; At 2-8° C., 3 months): 0.07 weight percent | RRT 1.98 ([2]; At 2-8° C., 3 months): 0.06 weight percent | Sulfide ([2]; At 2-8° C., 3 months): 0.48 weight percent | Sulfone ([2]; At 2-8° C., 3 months): 0.59 weight percent | Total impurities ([2]; At 2-8° C., 3 months): 1.63 weight percent | Water ([2]; At 2-8° C., 3 months): 2.24 weight percent | 2-MB ([2]; At 2-8° C., Initial): 0.02 weight percent | Highest Impurity ([2]; At 2-8° C., Initial): 0.07 weight percent | RRT 1.98 ([2]; At 2-8° C., Initial): 0.03 weight percent | Sulfide ([2]; At 2-8° C., Initial): 0.47 weight percent | Sulfone ([2]; At 2-8° C., Initial): 0.59 weight percent | Total impurities ([2]; At 2-8° C., Initial): 1.42 weight percent | Water ([2]; At 2-8° C., Initial): 2.90 weight percent | 2-MB [2, 6]: 0.05 weight percent | Highest Impurity [2, 6]: 0.09 weight percent | RRT 1.98 [2, 6]: 0.14 weight percent | Sulfide [2, 6]: 0.47 weight percent | Sulfone [2, 6]: 0.55 weight percent | Total impurities [2, 6]: 1.80 weight percent | Water [2, 6]: 2.89 weight percent | 2-MB [2, 7]: 0.04 weight percent | Highest Impurity [2, 7]: 0.07 weight percent | RRT 1.98 [2, 7]: 0.15 weight percent | Sulfide [2, 7]: 0.50 weight percent | Sulfone [2, 7]: 0.61 weight percent | Total impurities [2, 7]: 1.99 weight percent | Water [2, 7]: 1.54 weight percent | 2-MB [2, 8]: 0.04 weight percent | Highest Impurity [2, 8]: 0.07 weight percent | RRT 1.98 [2, 8]: 0.17 weight percent | Sulfide [2, 8]: 0.50 weight percent | Sulfone [2, 8]: 0.61 weight percent | Total impurities [2, 8]: 1.89 weight percent | Water [2, 8]: 1.50 weight percent | 2-MB [2, 9]: 0.03 weight percent | Highest Impurity [2, 9]: 0.08 weight percent | RRT 1.98 [2, 9]: 0.09 weight percent | Sulfide [2, 9]: 0.50 weight percent | Sulfone [2, 9]: 0.61 weight percent | Total impurities [2, 9]: 1.76 weight percent | Water [2, 9]: 1.68 weight percent | 2-MB [2, 10]: 0.04 weight percent | Highest Impurity [2, 10]: 0.06 weight percent | RRT 1.98 [2, 10]: 0.14 weight percent | Sulfide [2, 10]: 0.52 weight percent | Sulfone [2, 10]: 0.64 weight percent | Total impurities [2, 10]: 1.93 weight percent | Water [2, 10]: 1.29 weight percent | 2-MB [2, 11]: 0.02 weight percent | Highest Impurity [2, 11]: 0.07 weight percent | RRT 1.98 [2, 11]: 0.03 weight percent | Sulfide [2, 11]: 0.47 weight percent | Sulfone [2, 11]: 0.59 weight percent | Total impurities [2, 11]: 1.42 weight percent | Water [2, 11]: 2.90 weight percent | Physical form during stability testing [2, 12]: remained in an amorphous form
SMILES: Cc1c(OCC(F)(F)F)ccnc1C[S@@+]([O-])c1nc2ccccc2[nH]1 [Example 23, dexlansoprazole]
Appearance during stability testing [2, 12]: maintained their initial cream color powder form

Bulk density ([3]; after tapping): 0.65 g/mL | Bulk density ([3]; before tapping): 0.47 g/mL | Particle size distribution d(0.1) [4]: 0.896 μm | Particle size distribution d(0.5) [4]: 5.308 μm | Particle size distribution d(0.9) [4]: 12.938
SMILES: Cc1c(OCC(F)(F)F)ccnc1C[S@@+]([O-])c1nc2ccccc2[nH]1 [Example 24, dexlansoprazole]

specific surface area by the BET method [5]: 1.0608 m^2/g
SMILES: Cc1c(OCC(F)(F)F)ccnc1C[S@@+]([O-])c1nc2ccccc2[nH]1 [Example 25, dexlansoprazole]

From US20110028518A1, “DEXLANSOPRAZOLE PROCESS AND POLYMORPHS” (DR. REDDY'S LABORATORIES LTD., priority 2008, published 2011)
